PubChem BioAssay AID256 (DTP/NCI, 2004)
Values joined by “and” are separate entries in the source; they are usually repeats but may differ in a detail not shown here. Equal entries are not always repeated. Toxic doses and inconclusive results are not listed. How the source made its calls: active means survival T/C of 150% or more; inactive means T/C below 125% in these data. Non-standard residues stand in square brackets, D forms with d. Residues, ends and D or L forms follow the SMILES beside them. ξ: configuration not given here. *: point of attachment. ξW = NC(Cc1c[nH]c2ccccc12)C(=O)O; Cbz = O=C(OCc1ccccc1)*

Test system: CD2F1 mice, L1210 leukemia ip, survival T/C
Test: NCI In Vivo Anticancer Drug Screen. Data for tumor model L1210 Leukemia (intraperitoneal) in CD2F1 (CDF1) mice
Conditions: higher = longer survival
How it was run: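 In this screen, transplantable tumors were grown in mice given either the compound or its vehicle. Results were expressed as the treated measurement relative to the control measurement.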

[1] = endpoint: mean survival time, dose: 6.25 mg/kg/injection, schedule: Q01DX009 (ip), vehicle: saline with Tween-80
[2] = endpoint: mean survival time, dose: 12.5 mg/kg/injection, schedule: Q01DX009 (ip), vehicle: saline with Tween-80
[3] = endpoint: mean survival time, dose: 25.0 mg/kg/injection, schedule: Q01DX009 (ip), vehicle: saline with Tween-80
[4] = endpoint: mean survival time, dose: 100.0 mg/kg/injection, schedule: Q04DX003 (ip), vehicle: saline
[5] = endpoint: mean survival time, dose: 50.0 mg/kg/injection, schedule: Q01DX009 (ip), vehicle: saline with Tween-80
[6] = endpoint: mean survival time, dose: 100.0 mg/kg/injection, schedule: Q04DX002 (ip), vehicle: saline with Tween-80
[7] = endpoint: mean survival time, dose: 100.0 mg/kg/injection, schedule: Q04DX003 (ip), vehicle: saline with Tween-80
[8] = endpoint: mean survival time, dose: 200.0 mg/kg/injection, schedule: Q01DX009 (ip), vehicle: saline with Tween-80
[9] = endpoint: mean survival time, dose: 200.0 mg/kg/injection, schedule: Q04DX002 (ip), vehicle: saline with Tween-80
[10] = endpoint: mean survival time, dose: 200.0 mg/kg/injection, schedule: Q04DX003 (ip), vehicle: saline with Tween-80
[11] = endpoint: mean survival time, dose: 400.0 mg/kg/injection, schedule: Q04DX002 (ip), vehicle: saline with Tween-80
[12] = endpoint: mean survival time, dose: 400.0 mg/kg/injection, schedule: Q04DX003 (ip), vehicle: saline with Tween-80
[13] = endpoint: mean survival time, dose: 100.0 mg/kg/injection, schedule: Q01DX009 (ip), vehicle: saline
[14] = endpoint: mean survival time, dose: 200.0 mg/kg/injection, schedule: Q01DX009 (ip), vehicle: saline
[15] = endpoint: mean survival time, dose: 100.0 mg/kg/injection, schedule: Q01DX009 (ip), vehicle: saline with Tween-80
[16] = endpoint: mean survival time, dose: 400.0 mg/kg/injection, schedule: Q01DX009 (ip), vehicle: saline with Tween-80

Measured: T/C

CCOc1ccc(Nc2nc(C(Cl)(Cl)Cl)cc(C(Cl)(Cl)Cl)n2)cc1CN(CC)CC
inactive: [1] 101 % of control | endpoint: mean survival time, dose: 6.25 mg/kg/injection, schedule: Q04DX003 (ip), vehicle: saline with Tween-80 97 % of control | [2] 100 % of control | endpoint: mean survival time, dose: 12.5 mg/kg/injection, schedule: Q04DX003 (ip), vehicle: saline with Tween-80 101 % of control | [3] 102 % of control | endpoint: mean survival time, dose: 25.0 mg/kg/injection, schedule: Q04DX003 (ip), vehicle: saline with Tween-80 95 % of control

S=c1nc[nH]c2nc(-c3ccccc3)[nH]c12
inactive: endpoint: mean survival time, dose: 12.5 mg/kg/injection, schedule: Q01DX005 (ip), vehicle: other 98 % of control | endpoint: mean survival time, dose: 25.0 mg/kg/injection, schedule: Q01DX005 (ip), vehicle: other 96 % of control | endpoint: mean survival time, dose: 50.0 mg/kg/injection, schedule: Q01DX005 (ip), vehicle: other 102 % of control | endpoint: mean survival time, dose: 100.0 mg/kg/injection, schedule: Q01DX005 (ip), vehicle: other 98 % of control | endpoint: mean survival time, dose: 200.0 mg/kg/injection, schedule: Q01DX005 (ip), vehicle: other 93 % of control

O=[N+]([O-])O.[Er]
inactive: endpoint: mean survival time, dose: 25.0 mg/kg/injection, schedule: Q04DX003 (ip), vehicle: saline 96 % of control | endpoint: mean survival time, dose: 50.0 mg/kg/injection, schedule: Q04DX003 (ip), vehicle: saline 87 % of control | [4] 87 % of control

Cc1cc(NC(=O)Oc2ccc([N+](=O)[O-])cc2)ccc1S(=O)(=O)F
inactive: [3] 91 % of control and 98 % of control | [5] 87 % of control and 96 % of control | endpoint: mean survival time, dose: 100.0 mg/kg/injection, schedule: Q01DX001 (ip), vehicle: saline with Tween-80 95 % of control | [6] 93 % of control and 100 % of control | [7] 94 % of control | endpoint: mean survival time, dose: 200.0 mg/kg/injection, schedule: Q01DX001 (ip), vehicle: saline with Tween-80 101 % of control | [8] 91 % of control | [9] 93 % of control and 107 % of control | [10] 96 % of control | endpoint: mean survival time, dose: 400.0 mg/kg/injection, schedule: Q01DX001 (ip), vehicle: saline with Tween-80 98 % of control | [11] 100 % of control and 103 % of control | [12] 102 % of control

NC(=O)CNC(=O)C(Cc1c[nH]c2ccccc12)NC(=O)OCc1ccccc1 (stereo unspecified) (Cbz-[ξW]-Gly-NH2)
inactive: endpoint: mean survival time, dose: 75.0 mg/kg/injection, schedule: Q04DX003 (ip), vehicle: saline 93 % of control | endpoint: mean survival time, dose: 150.0 mg/kg/injection, schedule: Q04DX003 (ip), vehicle: saline 97 % of control | endpoint: mean survival time, dose: 300.0 mg/kg/injection, schedule: Q04DX003 (ip), vehicle: saline 98 % of control

O=C1NC(=O)C2=C1C1(Cl)C(Cl)=C(Cl)C2(Cl)C1(Cl)Cl
inactive: [7] 103 % of control | [10] 101 % of control | [12] 103 % of control

CN(C)c1ccc(/C=C\C(=O)c2ccccc2)cc1
inactive: endpoint: mean survival time, dose: 50.0 mg/kg/injection, schedule: Q01DX009 (ip), vehicle: saline 109 % of control | [13] 97 % of control | [14] 106 % of control

CCN1c2ccccc2Sc2cc(C=O)ccc21
inactive: endpoint: mean survival time, dose: 50.0 mg/kg/injection, schedule: Q01DX009 (ip), vehicle: Klucel (hydroxypropylcellulose) (HPC) 97 % of control | endpoint: mean survival time, dose: 100.0 mg/kg/injection, schedule: Q01DX009 (ip), vehicle: Klucel (hydroxypropylcellulose) (HPC) 108 % of control

NC(CC[Se]Cc1ccccc1)C(=O)O (stereo unspecified)
inactive: [1] 92 % of control | [2] 92 % of control | [3] 92 % of control | [7] 90 % of control | [10] 86 % of control

O=C1c2ccccc2C(=O)N1CBr
inactive: [2] 100 % of control | [3] 97 % of control | [5] 98 % of control

COC(=O)C(C)CC(C)(C=O)OC (stereo unspecified)
inactive: [15] 102 % of control | [8] 96 % of control | [16] 96 % of control

c1ccc(CCSc2ncnc3nc[nH]c23)cc1
inactive: endpoint: mean survival time, dose: 100.0 mg/kg/injection, schedule: Q01DX007 (ip), vehicle: saline 103 % of control | [13] 122 % of control | endpoint: mean survival time, dose: 100.0 mg/kg/injection, schedule: Q03DX003 (ip), vehicle: saline 96 % of control | [4] 98 % of control | endpoint: mean survival time, dose: 200.0 mg/kg/injection, schedule: Q01DX007 (ip), vehicle: saline 111 % of control | [14] 113 % of control | endpoint: mean survival time, dose: 200.0 mg/kg/injection, schedule: Q03DX003 (ip), vehicle: saline 102 % of control | endpoint: mean survival time, dose: 200.0 mg/kg/injection, schedule: Q04DX003 (ip), vehicle: saline 103 % of control | endpoint: mean survival time, dose: 400.0 mg/kg/injection, schedule: Q01DX007 (ip), vehicle: saline 120 % of control | endpoint: mean survival time, dose: 400.0 mg/kg/injection, schedule: Q01DX009 (ip), vehicle: saline 124 % of control | endpoint: mean survival time, dose: 400.0 mg/kg/injection, schedule: Q03DX003 (ip), vehicle: saline 106 % of control | endpoint: mean survival time, dose: 400.0 mg/kg/injection, schedule: Q04DX003 (ip), vehicle: saline 106 % of control

CC(CNCCN)C[Si](C)(C)C (stereo unspecified)
inactive: [1] 100 % of control | [2] 98 % of control | [3] 104 % of control

Cc1cc(O)c(N=Nc2ccc(Br)cc2)cc1C
inactive: [5] 97 % of control | [15] 93 % of control | [8] 97 % of control

CC(C)(C)C1=C(N=[N+]=[N-])C(=O)C(C(C)(C)C)=C(N=[N+]=[N-])C1=O
inactive: endpoint: mean survival time, dose: 100.0 mg/kg/injection, schedule: Q01DX001 (ip), vehicle: other 104 % of control | endpoint: mean survival time, dose: 200.0 mg/kg/injection, schedule: Q01DX001 (ip), vehicle: other 104 % of control | endpoint: mean survival time, dose: 400.0 mg/kg/injection, schedule: Q01DX001 (ip), vehicle: other 101 % of control

CCN(CC)Cc1cc(Nc2ncnc3scc(C)c23)ccc1O
inactive: [7] 100 % of control | [10] 97 % of control | [12] 100 % of control

CC(C)C1OCC(C)(C)C(C)O1 (stereo unspecified)
inactive: endpoint: mean survival time, dose: 50.0 mg/kg/injection, schedule: Q04DX002 (ip), vehicle: saline 96 % of control | endpoint: mean survival time, dose: 100.0 mg/kg/injection, schedule: Q04DX002 (ip), vehicle: saline 96 % of control | endpoint: mean survival time, dose: 200.0 mg/kg/injection, schedule: Q04DX002 (ip), vehicle: saline 93 % of control

O=C(Nc1ccccc1[N+](=O)[O-])OCc1ccccc1
inactive: [6] 95 % of control | [9] 91 % of control | [11] 91 % of control

Cc1ccc([Si](OO[Si](c2ccccc2)(c2ccccc2)c2ccc(C)cc2)(c2ccccc2)c2ccccc2)cc1
inactive: [15] 98 % of control | [7] 98 % of control | [8] 93 % of control | [10] 100 % of control | [16] 95 % of control | [12] 98 % of control

Cc1ccc(S(=O)(=O)N(O)c2ccccc2)cc1
inactive: [7] 100 % of control | [10] 100 % of control | [12] 103 % of control

O=Cc1cc([N+](=O)[O-])ccc1OCC(=O)O
inactive: [15] 92 % of control | [8] 95 % of control | [16] 96 % of control

C/C=C/CC1CCCCC1
inactive: [5] 100 % of control | [15] 100 % of control | [8] 100 % of control

O=C(OC1COC(OCc2ccccc2)C(OC(=O)c2ccccc2)C1OC(=O)c1ccccc1)c1ccccc1 (stereo unspecified)
inactive: [1] 102 % of control | [2] 105 % of control | [3] 108 % of control

NCCSC(C[N+](=O)[O-])c1ccccc1Cl (stereo unspecified)
inactive: endpoint: median survival time, dose: 6.25 mg/kg/injection, schedule: Q01DX009 (ip), vehicle: saline 102 % of control | endpoint: median survival time, dose: 12.5 mg/kg/injection, schedule: Q01DX009 (ip), vehicle: saline 107 % of control | endpoint: median survival time, dose: 25.0 mg/kg/injection, schedule: Q01DX009 (ip), vehicle: saline 112 % of control | endpoint: median survival time, dose: 50.0 mg/kg/injection, schedule: Q01DX009 (ip), vehicle: saline 123 % of control | endpoint: median survival time, dose: 100.0 mg/kg/injection, schedule: Q01DX009 (ip), vehicle: saline 123 % of control

CCN(CC)C(=O)SCCSC(=O)N(CC)CC
inactive: endpoint: mean survival time, dose: 25.0 mg/kg/injection, schedule: Q04DX002 (ip), vehicle: saline with Tween-80 96 % of control | endpoint: mean survival time, dose: 50.0 mg/kg/injection, schedule: Q04DX002 (ip), vehicle: saline with Tween-80 104 % of control | [6] 101 % of control | [9] 91 % of control | [11] 95 % of control

Nc1ncc2ccccc2c1-c1ccc(NC(=O)CN(CCCl)CCCl)cc1
inactive: endpoint: mean survival time, dose: 25.0 mg/kg/injection, schedule: Q04DX003 (ip), vehicle: other 106 % of control | endpoint: mean survival time, dose: 50.0 mg/kg/injection, schedule: Q04DX003 (ip), vehicle: other 106 % of control | endpoint: mean survival time, dose: 100.0 mg/kg/injection, schedule: Q04DX003 (ip), vehicle: other 103 % of control | endpoint: mean survival time, dose: 200.0 mg/kg/injection, schedule: Q04DX003 (ip), vehicle: other 109 % of control | endpoint: mean survival time, dose: 400.0 mg/kg/injection, schedule: Q04DX003 (ip), vehicle: other 112 % of control
